Measurements: patent publication US6723702B2, “Use of relaxin treat diseases related to vasoconstriction” (RAS Medical, Inc., priority 2000, dated 2004)
Where two headings read alike, the source gives them in different places. Marks after values point to notes of the source that are not given here.

Legend:
[1] = system: intact, female rats; assay: Hematocrit and plasma osmolality during chronic relaxin infusion; type: in vivo, rat; settings: for Hematocrit, Difference between baseline and Day 5 / Plasma osmolality, Difference between baseline and Day 5: 4 μg/h s.c. infusion
Method: At the beginning of each experiment, immediately after opening the arterial catheter and before infusion of fluids, 100 μl of blood was collected into a heparinized tube. After centrifugation to separate blood cells from plasma, the latter was frozen at −20° C. until assay for osmolality. Then, three 30-minute baseline urine collections with midpoint blood samples and continuous recording of MAP were made on one or two occasions separated by at least 48 hours, in order to accurately measure control MAP, GFR, ERPF, and ERVR (MAP/ERPF). The hematocrit was also routinely determined on these midpoint blood samples. The renal clearances of IN and PAH were used to assess GFR and ERPF, respectively. […] Next, an osmotic minipump containing purified porcine RLX (4 μg/hour; n=7 rats), rhRLX (4 μg/hour; n=5) or vehicle (n=4) was implanted. MAP, GFR, ERPF, and ERVR were assessed on days 2 and 5 of the infusion, and 5-12 days after depletion of the 7-day minipump. Details of our methodologies for the assessment of GFR and ERPF in chronically instrumented, conscious rats including the measurement of IN and PAH in both plasma and urine have been previously published. Conrad (1984) Kidney Int. 26:24-29; and Danielson and Conrad (1995) J. Clin. Invest. 96:482-490. Circulating relaxin concentrations of 20-40 ng/mL have been measured in rats of 12-14 gestational days. Sherwood et al. (1980) Endocrinol. 107:691-698. An infusion rate of 4 μg/hour for purified porcine RLX or rhRLX would be expected to produce plasma levels of 20-40 ng/mL.
Plasma osmolality was measured using a freezing-point depression instrumentation osmometer (Model 3MO, Advanced Instruments, Needham Heights, Mass.). Plasma and urine IN and PAH were assayed by standard techniques. Urinary sodium concentration was measured by ion selective electrode (Sodium-Potassium Chemistry Module, Beckman Instruments, Inc., Brea, Calif.). Urinary cGMP was determined by specific radioimmunoassay as previously described. Conrad and Vernier (1989) Am. J. Physiol. 257:R847-R853. Urinary NOX was measured by reduction of nitrate to nitrite, the latter determined by the Griess reaction which produces a calorimetric product measured at 540 nm (Nitrate/Nitrite Colorimetric Assay Kit, Cayman Chemical, Ann Arbor, Mich.).
Data are presented as mean±SEM. rhRLX, recombinant human relaxin. RLX was infused at 4 μg/h by osmotic minipump s.c. There were 7, 4, and 5 rats, respectively, in the porcine RLX, vehicle, and rhRLX groups at baseline, and days 2 and 5 of treatment. During the post RLX period, 6, 2, and 2 rats were studied in the porcine RLX, vehicle and rhRLX groups. Two of the rats in the vehicle group received Ringer's solution (vehicle for porcine RLX), and two received 20 mM sodium acetate, pH 5.0 (vehicle for rhRLX). The results were not different, and therefore, the data were combined. *p<0.05 vs baseline, Hp<0.05 RLX vs vehicle.

[2] = system: hypoxia-exposed and room-air Sprague-Dawley rats; type: in vivo, rat; settings: for mean RVP compared to the veh-hyp group: hypoxia 10 days (FIG. 7)
Method: Outbred 6-week-old Sprague-Dawley rats, 200-220 g body weight, were obtained from Hilltop Laboratories, Scottdale, Pa. Recombinant human relaxin (rhRlx) (5.0 mg/ml in 20 mM sodium acetate, pH5.0) and vehicle (20 mM acetate, pH5.0) were provided by Connetics Corporation (Palo Alto, Calif.). Miniosmotic pumps were purchased from Alza Corporation (Model 2002, Alza Corp., Palo Alto, Calif.).
Mini osmotic pumps were filled to deliver rhRlx at […], or vehicle alone. Osmotic pumps were inserted subcutaneously in rats under a combination of ketamine and xylazine anaesthesia. The area around the back of the neck was shaved, cleaned with alcohol, and a small incision made for pump insertion. Incision was closed with surgical staples. After the animals were fully conscious they were randomly assigned to either hypoxic exposure or room air. Rats were subjected to either air or hypoxia, as described below. There were three groups of rats subjected to air: vehicle-treated (veh-air), 0.05 mg/kg/day rhRlx (low rhRlx-air), and 0.24 mg/kg/day rhRlx (hi rhRlx-air). There were three groups subjected to hypoxia: vehicle (veh-hyp), 0.05 mg/kg/day rhRlx (low rhRlx-hyp), and 0.24 mg/kg/day rhRlx (hi rhRlx-hyp).
Rats were exposed to hypoxia (10% O2, 90% N2) at ambient pressure (Kerr et al., 1987) for 10 days, control groups were exposed to room air in the same room. Hypoxic animals were fed standard rat chow and water. Age-matched control groups were weight-matched by feeding the amount of food consumed by the rats in the hypoxic groups. At the end of the test period, mean right ventricular pressure (RVP) was measured in rats anaesthetized with an intraperitoneal injection of 50 mg/kg pentobarbital sodium. The portal vein was then cut for hematocrit measurement (Hct) and blood sampling, and the ratio of the right ventricle to left ventricle plus septum measured [RV/(LV+S)] (Kerr et al., 1987). To determine the effect of acute administration of rhRlx on pulmonary artery pressure, four 10-day hypoxic rats were anaesthetized, as previously described, and RVP monitored for 1 hr following administration of a bolus dose of 2 μg rhRlx in 0.2 ml total volume, followed by an infusion of 2 μg rhRlx in 0.2 ml, given over 10 min.
The pulmonary artery trunk, right and left extrapulmonary branches were removed en bloc, cleaned of surrounding tissue, and weighed. The left lung was and excised and the entire hilar artery dissected from parenchyma and weighed (Tozzi et al. (1994) Am. J. Respir. Crit. Care Med. 149:1316-1326). Segments were hydrolyzed, and total hydroxyproline and protein determined (Poiani et al. (1990) Circ. Res. 66:968-978). Approximately 3 cc of whole blood was centrifuged, serum aspirated, and sample frozen at −20° C. for determination of rRlx levels by ELISA assay.

[3] = Baseline, before 4 μg/h s.c. minipump

| Substance | Hematocrit, Difference between baseline and Day 5 [1] | Plasma osmolality, Difference between baseline and Day 5 [1] | Hematocrit [1, 3] | Plasma osmolality [1, 3] | Hematocrit ([1]; Day 2 of 4 μg/h s.c. infusion) | Plasma osmolality ([1]; Day 2 of 4 μg/h s.c. infusion) | Hematocrit ([1]; Day 5 of 4 μg/h s.c. infusion) | Plasma osmolality ([1]; Day 5 of 4 μg/h s.c. infusion) | Hematocrit ([1]; Post RLX Day 5-12) | Plasma osmolality ([1]; Post RLX Day 5-12) | other results |
| --- | --- | --- | --- | --- | --- | --- | --- | --- | --- | --- | --- |
| Porcine RLX: lyophilized, purified porcine relaxin (Sherwood and O'Byrne 1974), dissolved in Ringer's solution | −4 ± 1 % | −14 ± 3 mOsm/kg H2O | 42 ± 1% | 301 ± 2 mOsm/kg H2O | 39 ± 1* % | 289 ± 2*† mOsm/kg H2O | 37 ± 1*† % | 287 ± 2*† mOsm/kg H2O | 40 ± 1% | 299 ± 2 mOsm/kg H2O | – |
| rhRLX: recombinant human relaxin, identical in amino acid sequence to the product of the human H2 gene; A chain of 24, B chain of 29 amino acids | −2 ± 1 % | −12 ± 2 mOsm/kg H2O | 39 ± 0% | 299 ± 2 mOsm/kg H2O | 37 ± 1* % | 291 ± 3*† mOsm/kg H2O | 37 ± 1*† % | 286 ± 2*† mOsm/kg H2O | 40% | 302 mOsm/kg H2O | Hydroxyproline Hilar ([2]; 1 mg-air): 38.0 ± 2.3 μg/vessel; Hydroxyproline MPA ([2]; 1 mg-air): 76.4 ± 4.0 μg/vessel; Protein Hilar ([2]; 1 mg-air): 0.78 ± 0.3 mg/vessel; Protein MPA ([2]; 1 mg-air): 2.6 ± 0.2 mg/vessel; Hydroxyproline Hilar ([2]; 1 mg-hyp): 41.0 ± 3.3 μg/vessel; Hydroxyproline MPA ([2]; 1 mg-hyp): 95.2 ± 3.6 μg/vessel; Protein Hilar ([2]; 1 mg-hyp): 0.90 ± 0.2 mg/vessel; Protein MPA ([2]; 1 mg-hyp): 2.3 ± 0.2 mg/vessel; Hydroxyproline Hilar ([2]; 5 mg-air): 33.5 ± 1.5 μg/vessel; Hydroxyproline MPA ([2]; 5 mg-air): 75.2 ± 4.0 μg/vessel; Protein Hilar ([2]; 5 mg-air): 1.1 ± 0.1 mg/vessel; Protein MPA ([2]; 5 mg-air): 2.5 ± 0.3 mg/vessel; Hydroxyproline Hilar ([2]; 5 mg-hyp): 37.0 ± 5.0*↑ μg/vessel; Hydroxyproline MPA ([2]; 5 mg-hyp): 86.6 ± 6.0*↑ μg/vessel; Protein Hilar ([2]; 5 mg-hyp): 0.75 ± 0.8 mg/vessel; Protein MPA ([2]; 5 mg-hyp): 2.0 ± 0.4 mg/vessel; RV/(LV+S) ratio compared to the veh-hyp group ([2]; hi rhRlx-hyp): significantly reduced; mean RVP compared to the veh-hyp group ([2]; high dose): decreased; mean RVP compared to the veh-hyp group ([2]; low dose): decreased; RV/(LV+S) ratio compared to the veh-hyp group ([2]; low rhRlx-hyp): significantly reduced |
